Legend:
osteoclast precursors = experiment: cells; format: cell-based; details: read-out: Osteoclast assay
Procedure: Osteoclast Tartrate-Resistant Acid Phosphatase Assay
Diluted compound was transferred to a 384-well black clear bottom plate. Two-thousand five hundred osteoclast precursors (Lonza, Walkersville, Md.) were added per well in growth media containing Receptor Activator of Nuclear Factor Kappa-beta ligand (RANKL) and M-CSF (R&D Systems, Minneapolis, Minn.). […] Tartrate-resistant acid phosphatase activity in the supernatant samples was determined using an acid phosphatase assay kit (Sigma, St. Louis, Mo.). Absorbance was measured at 550 nm using a plate reader. Data was analyzed using Prism software (Graphpad, San Diego, Calif.) to calculate IC50 values.

M-NFS-60 cells = experiment: cells; details: 67 h, read-out: M-NFS-60 cell proliferation
Procedure: M-NFS-6 Cell Proliferation Assay
A serial dilution of test compound was dispensed into a 384-well black clear bottom plate (Corning, Corning, N.Y.). Two thousand five hundred cells were added per well in 50 μL complete growth medium. […] IC50 values were calculated from a series of percent inhibition values determined at a range of inhibitor concentrations using software routines as implemented in the GraphPad Prism software package.

[1] = biological target: T1, unphosphorylated c-FMS kinase (uFMS, Seq. ID no. 1) (Homo sapiens, UniProt P07333); experiment: biochemical; details: uFMS, enzymatic assay, ATP 500 μM
T1 sequence (P07333 538-972): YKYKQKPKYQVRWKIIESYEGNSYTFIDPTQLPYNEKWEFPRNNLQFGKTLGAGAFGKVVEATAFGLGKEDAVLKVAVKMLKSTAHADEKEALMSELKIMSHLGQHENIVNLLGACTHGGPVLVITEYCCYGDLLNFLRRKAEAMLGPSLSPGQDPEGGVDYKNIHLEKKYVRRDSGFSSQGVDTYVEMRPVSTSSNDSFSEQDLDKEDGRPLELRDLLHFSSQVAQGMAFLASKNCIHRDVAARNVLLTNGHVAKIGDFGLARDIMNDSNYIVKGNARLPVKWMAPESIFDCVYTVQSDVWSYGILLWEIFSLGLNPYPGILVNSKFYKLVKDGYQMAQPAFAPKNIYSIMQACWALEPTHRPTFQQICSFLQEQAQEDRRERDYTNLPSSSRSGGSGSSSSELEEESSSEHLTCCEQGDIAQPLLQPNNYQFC

[2] = biological target: unphosphorylated c-KIT kinase (uKIT, Seq. ID no. 2) (Homo sapiens, UniProt P10721); experiment: biochemical; details: uKIT, enzymatic assay, ATP 2000 μM
Sequence of unphosphorylated c-KIT kinase (uKIT, Seq. ID no. 2) (P10721 with tags, fused parts or gaps): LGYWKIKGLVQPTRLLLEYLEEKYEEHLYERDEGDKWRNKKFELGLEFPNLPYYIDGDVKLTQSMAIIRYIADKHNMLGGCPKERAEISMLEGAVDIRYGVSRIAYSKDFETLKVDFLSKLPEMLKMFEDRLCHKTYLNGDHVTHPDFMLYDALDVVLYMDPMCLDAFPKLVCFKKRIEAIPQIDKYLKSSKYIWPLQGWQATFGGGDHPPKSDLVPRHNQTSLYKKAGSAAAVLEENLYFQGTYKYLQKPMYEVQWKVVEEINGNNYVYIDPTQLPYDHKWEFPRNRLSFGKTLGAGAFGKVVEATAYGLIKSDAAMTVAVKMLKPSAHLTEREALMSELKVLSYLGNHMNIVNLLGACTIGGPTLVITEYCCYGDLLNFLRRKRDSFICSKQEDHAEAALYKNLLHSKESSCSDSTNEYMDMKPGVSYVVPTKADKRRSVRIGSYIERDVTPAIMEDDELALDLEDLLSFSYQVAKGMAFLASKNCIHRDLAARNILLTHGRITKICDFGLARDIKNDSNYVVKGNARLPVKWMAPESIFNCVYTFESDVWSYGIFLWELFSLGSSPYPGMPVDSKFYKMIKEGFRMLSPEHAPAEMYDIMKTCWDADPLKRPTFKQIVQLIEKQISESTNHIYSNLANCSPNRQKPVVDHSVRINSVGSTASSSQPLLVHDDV
Procedure: uKit kinase (Seq. ID No. 2) Assay
In this assay, the oxidation of NADH (thus the decrease at A340 nm) was continuously monitored spectrophometrically. […] The inhibition reaction was started by mixing serial diluted test compound with the above reaction mixture. The absorption at 340 nm was monitored continuously for 4 hours at 30° C. on Synergy 2 plate reader (BioTech).

[3] = biological target: unphosphorylated PDGFRβ kinase (uPDGFRβ, Seq. ID No. 3) (Homo sapiens, UniProt P09619); experiment: biochemical; details: uPDGFRb, enzymatic assay, ATP 500 μM
Sequence of unphosphorylated PDGFRβ kinase (uPDGFRβ, Seq. ID No. 3) (P09619 557-1106): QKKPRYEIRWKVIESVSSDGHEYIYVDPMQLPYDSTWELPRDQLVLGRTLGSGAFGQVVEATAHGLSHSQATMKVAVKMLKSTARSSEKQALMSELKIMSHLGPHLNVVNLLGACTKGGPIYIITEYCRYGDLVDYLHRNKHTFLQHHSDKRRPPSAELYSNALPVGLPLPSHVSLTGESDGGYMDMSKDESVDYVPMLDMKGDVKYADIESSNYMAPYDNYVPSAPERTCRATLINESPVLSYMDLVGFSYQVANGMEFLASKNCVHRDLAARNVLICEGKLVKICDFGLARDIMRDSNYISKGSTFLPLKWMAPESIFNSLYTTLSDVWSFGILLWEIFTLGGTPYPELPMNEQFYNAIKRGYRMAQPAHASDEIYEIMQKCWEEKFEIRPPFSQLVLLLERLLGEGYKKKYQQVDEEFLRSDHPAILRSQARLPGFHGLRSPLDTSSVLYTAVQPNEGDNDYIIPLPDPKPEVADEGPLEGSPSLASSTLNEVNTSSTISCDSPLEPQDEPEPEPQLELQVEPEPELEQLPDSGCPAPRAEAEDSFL

Row | IC50 (osteoclast precursors) | IC50 [1] | IC50 [2] | IC50 [3] | Compound | IC50 (M-NFS-60 cells)
1 | 10 to 100 nM | 10 to 100 nM | > 1000 nM | > 1000 nM | Cc1cn(-c2cc(Oc3ccc(NC(=O)NC(=O)[C@@H]4C[C@H]5CC[C@@H]4O5)nc3C)ccn2)cn1 (relative stereo) [Example 137, exo-N-((6-methyl-5-((2-(4-methyl-1H-imidazol-1-yl)pyridin-4-yl)oxy)pyridin-2-yl)carbamoyl)-7-oxabicyclo[2.2.1]heptane-2-carboxamide] | 100 to 1000 nM
2 | 100 to 1000 nM | < 10 nM | 10 to 100 nM | 10 to 100 nM | Cc1nc(NC(=O)NC(=O)C23CC4CC(CC(C4)C2)C3)ccc1Oc1ccnc(-c2cnn(C)c2)c1 [Example 37, N-((6-methyl-5-((2-(1-methyl-1H-pyrazol-4-yl)pyridin-4-yl)oxy)pyridin-2-yl)carbamoyl)adamantane-1-carboxamide] | 10 to 100 nM
3 | < 10 nM | < 10 nM | < 10 nM | < 10 nM | Cn1cc(-c2cc(Oc3ccc(NC(=O)NC(=O)CC4CC5CCC4C5)nc3)ccn2)cn1 (centres unmarked) [Example 62, 2-(bicyclo[2.2.1]heptan-2-yl)-N-((5-((2-(1-methyl-1H-pyrazol-4-yl)pyridin-4-yl)oxy)pyridin-2-yl)carbamoyl)acetamide] | < 10 nM
4 | < 10 nM | < 10 nM | 100 to 1000 nM | 100 to 1000 nM | CCC(C)(C)C(=O)NC(=O)Nc1ccc(Oc2ccnc(-c3cnn(C)c3)c2)cn1 [Example 63, 2,2-dimethyl-N-((5-((2-(1-methyl-1H-pyrazol-4-yl)pyridin-4-yl)oxy)pyridin-2-yl)carbamoyl)butanamide] | < 10 nM
5 | 10 to 100 nM | < 10 nM | < 10 nM | 10 to 100 nM | Cn1cc(-c2cc(Oc3ccc(NC(=O)NC(=O)C4CC5CCC4C5)nc3)ccn2)cn1 (centres unmarked) [Example 64, N-((5-((2-(1-methyl-1H-pyrazol-4-yl)pyridin-4-yl)oxy)pyridin-2-yl)carbamoyl)bicyclo[2.2.1]heptane-2-carboxamide] | < 10 nM
6 | < 10 nM | < 10 nM | < 10 nM | 100 to 1000 nM | Cn1cc(-c2cc(Oc3ccc(NC(=O)NC(=O)C4CCCC4)nc3)ccn2)cn1 [Example 65, N-((5-((2-(1-methyl-1H-pyrazol-4-yl)pyridin-4-yl)oxy)pyridin-2-yl)carbamoyl)cyclopentanecarboxamide] | < 10 nM
7 | < 10 nM | < 10 nM | < 10 nM | 10 to 100 nM | Cn1cc(-c2cc(Oc3ccc(NC(=O)NC(=O)C4CCCCC4)nc3)ccn2)cn1 [Example 67, N-((5-((2-(1-methyl-1H-pyrazol-4-yl)pyridin-4-yl)oxy)pyridin-2-yl)carbamoyl)cyclohexanecarboxamide] | < 10 nM
8 | < 10 nM | < 10 nM | 100 to 1000 nM | 100 to 1000 nM | Cn1cc(-c2cc(Oc3ccc(NC(=O)NC(=O)C4CCOCC4)nc3)ccn2)cn1 [Example 68, N-((5-((2-(1-methyl-1H-pyrazol-4-yl)pyridin-4-yl)oxy)pyridin-2-yl)carbamoyl)tetrahydro-2H-pyran-4-carboxamide] | 10 to 100 nM
9 | 10 to 100 nM | < 10 nM | < 10 nM | 10 to 100 nM | Cn1cc(-c2cc(Oc3ccc(NC(=O)NC(=O)C4CC5CCC4CC5)nc3)ccn2)cn1 (centres unmarked) [Example 74, N-((5-((2-(1-methyl-1H-pyrazol-4-yl)pyridin-4-yl)oxy)pyridin-2-yl)carbamoyl)bicyclo[2.2.2]octane-2-carboxamide] | < 10 nM
10 | 10 to 100 nM | 10 to 100 nM | > 1000 nM | > 1000 nM | Cc1cc(-c2cc(Oc3ccc(NC(=O)NC(=O)C4CCOC4)nc3)ccn2)ccn1 (centres unmarked) [Example 85, N-((5-((2′-methyl-[2,4′-bipyridin]-4-yl)oxy)pyridin-2-yl)carbamoyl)tetrahydrofuran-3-carboxamide] | 100 to 1000 nM
11 | < 10 nM | < 10 nM | 100 to 1000 nM | 100 to 1000 nM | Cn1cc(-c2cc(Oc3ccc(NC(=O)NC(=O)C4(C)CCC4)nc3)ccn2)cn1 [Example 87, 1-methyl-N-((5-((2-(1-methyl-1H-pyrazol-4-yl)pyridin-4-yl)oxy)pyridin-2-yl)carbamoyl)cyclobutanecarboxamide] | < 10 nM
12 | < 10 nM | < 10 nM | 10 to 100 nM | 100 to 1000 nM | Cc1cc(NC(=O)NC(=O)C(C)C)ncc1Oc1ccnc(-c2cnn(C)c2)c1 [Example 88, N-((4-methyl-5-((2-(1-methyl-1H-pyrazol-4-yl)pyridin-4-yl)oxy)pyridin-2-yl)carbamoyl)isobutyramide] | < 10 nM
13 | 10 to 100 nM | 10 to 100 nM | > 1000 nM | > 1000 nM | Cc1ccc(-c2cc(Oc3ccc(NC(=O)NC(=O)C4CCOC4)nc3)ccn2)cn1 (centres unmarked) [Example 89, N-((5-((6′-methyl-[2,3′-bipyridin]-4-yl)oxy)pyridin-2-yl)carbamoyl)tetrahydrofuran-3-carboxamide] | 10 to 100 nM
14 | 10 to 100 nM | 10 to 100 nM | > 1000 nM | > 1000 nM | CC(C)(C)C(=O)NC(=O)Nc1ccc(Oc2ccnc(-c3cncnc3)c2)cn1 [Example 90, N-((5-((2-(pyrimidin-5-yl)pyridin-4-yl)oxy)pyridin-2-yl)carbamoyl)pivalamide] | > 1000 nM
15 | 10 to 100 nM | < 10 nM | > 1000 nM | > 1000 nM | CC(C)(C)C(=O)NC(=O)Nc1ccc(Oc2ccnc(-c3ccc(C(F)(F)F)nc3)c2)cn1 [Example 94, N-((5-((6′-(trifluoromethyl)-[2,3′-bipyridin]-4-yl)oxy)pyridin-2-yl)carbamoyl)pivalamide] | 10 to 100 nM
16 | 10 to 100 nM | 10 to 100 nM | > 1000 nM | > 1000 nM | CC(C)(C)C(=O)NC(=O)Nc1ccc(Oc2ccnc(-c3ccnc(C(F)(F)F)c3)c2)cn1 [Example 95, N-((5-((2′-(trifluoromethyl)-[2,4′-bipyridin]-4-yl)oxy)pyridin-2-yl)carbamoyl)pivalamide] | 100 to 1000 nM
17 | < 10 nM | < 10 nM | 10 to 100 nM | > 1000 nM | Cc1ccc(-c2cc(Oc3ccc(NC(=O)NC(=O)C4CCCC4)nc3C)ccn2)cn1 [Example 100, N-((6-methyl-5-((6′-methyl-[2,3′-bipyridin]-4-yl)oxy)pyridin-2-yl)carbamoyl)cyclopentanecarboxamide] | 10 to 100 nM
18 | 10 to 100 nM | < 10 nM | 100 to 1000 nM | < 10 nM | Cn1cc(-c2cc(Oc3ccc(NC(=O)NC(=O)C4(C(F)(F)F)CCC4)nc3)ccn2)cn1 [Example 101, N-((5-((2-(1-methyl-1H-pyrazol-4-yl)pyridin-4-yl)oxy)pyridin-2-yl)carbamoyl)-1-(trifluoromethyl)cyclobutanecarboxamide] | < 10 nM
19 | 10 to 100 nM | < 10 nM | 100 to 1000 nM | 100 to 1000 nM | Cc1nc(NC(=O)NC(=O)C2(C(F)(F)F)CCC2)ccc1Oc1ccnc(-c2cnn(C)c2)c1 [Example 102, N-((6-methyl-5-((2-(1-methyl-1H-pyrazol-4-yl)pyridin-4-yl)oxy)pyridin-2-yl)carbamoyl)-1-(trifluoromethyl)cyclobutanecarboxamide] | < 10 nM
20 | < 10 nM | < 10 nM | 100 to 1000 nM | 100 to 1000 nM | CNc1ccc(-c2cc(Oc3ccc(NC(=O)NC(=O)C(C)(C)C)nc3)ccn2)cn1 [Example 105, N-((5-((6′-(methylamino)-[2,3′-bipyridin]-4-yl)oxy)pyridin-2-yl)carbamoyl)pivalamide] | 10 to 100 nM
21 | < 10 nM | < 10 nM | 100 to 1000 nM | > 1000 nM | CC(C)(C)C(=O)NC(=O)Nc1ccc(Oc2ccnc(-c3ccc(N)nc3)c2)cn1 [Example 106, N-((5-((6′-amino-[2,3′-bipyridin]-4-yl)oxy)pyridin-2-yl)carbamoyl)pivalamide] | < 10 nM
22 | 10 to 100 nM | 10 to 100 nM | > 1000 nM | > 1000 nM | CCC(=O)NC(=O)Nc1ccc(Oc2ccnc(-c3ccc(C)nc3)c2)cn1 [Example 108, N-((5-((6′-methyl-[2,3′-bipyridin]-4-yl)oxy)pyridin-2-yl)carbamoyl)propionamide] | > 1000 nM
